Assay results reported in patent US20090192192A1, “INHIBITORS OF BIOFILM FORMATION OF GRAM-POSITIVE AND GRAM-NEGATIVE BACTERIA” (priority 2007, published 2009).

Each compound was assayed on Pseudomonas aeruginosa PAO1 (assay: MBEC assay, biofilm formation of P. aeruginosa PAO1). Conditions: compound concentration 100 μM, class symbols.
Assay type: cell-based
Outline: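 Peg-lid biofilms were grown 24 h at 35±2 °C, 110 rpm, from inoculum diluted to ~6.0×10^5 cells per mL in TSB, with compound at 10 μM or 100 μM final (1% DMSO) in 1% Tween 80/CAMHB. Pegs were rinsed, then sonicated 30 min into recovery medium; survivors were spot-plated, and recovery plates were read visually after 24 h; triplicates.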

| Compound | inhibition at 100 µM [%] |
| --- | --- |
| CCN(CC)C(=O)C1CCCN(C(=O)CCCCCCCCCNS(C)(=O)=O)C1 (stereo not drawn) [Example 143, N,N-diethyl-1-(10-(methylsulfonamido)decanoyl)piperidine-3-carboxamide] | 20 to 50 |
| CCCCCCCCNC(=O)CC(=O)N1CCCC(C(=O)N(CC)CC)C1 (stereo not drawn) [Example 144, N,N-diethyl-1-(3-(octylamino)-3-oxopropanoyl)piperidine-3-carboxamide] | 20 to 50 |
| CCCCCCCCCCCC(=O)N1CCC(C(N)=O)C1 (stereo not drawn) [Example 145, 1-dodecanoylpyrrolidine-3-carboxamide] | > 50 |
| CCCCCCCCCCCC(=O)N1CCC(C(=O)NC)C1 (stereo not drawn) [Example 146, 1-dodecanoyl-N-methylpyrrolidine-3-carboxamide] | > 50 |
| CCCCCCCCCCCC(=O)N1CCC(C(=O)N(C)C)C1 (stereo not drawn) [Example 147, 1-dodecanoyl-N,N-dimethylpyrrolidine-3-carboxamide] | > 50 |
| CCCCCCCCCCCC(=O)N1CCC(C(=O)N(CC)CC)C1 (stereo not drawn) [Example 148, 1-dodecanoyl-N,N-diethylpyrrolidine-3-carboxamide] | > 50 |
| CCCCCCCCCCCC(=O)N1CCC(C(=O)N2CCCC2)C1 (stereo not drawn) [Example 149, 1-(3-(pyrrolidine-1-carbonyl)pyrrolidin-1-yl)dodecan-1-one] | > 50 |
| CCCCCCCCCCCC(=O)N1CCC(C(=O)N(C(C)C)C(C)C)C1 (stereo not drawn) [Example 150, 1-dodecanoyl-N,N-diisopropylpyrrolidine-3-carboxamide] | > 50 |
| CCCCCCCCCCCC(=O)N1CCC(C(=O)Nc2ccccc2)C1 (stereo not drawn) [Example 151, 1-dodecanoyl-N-phenylpyrrolidine-3-carboxamide] | 20 to 50 |
| CCCCCCCCCCCC(=O)N1CCC(C(=O)Nc2ccc(F)cc2)C1 (stereo not drawn) [Example 152, 1-dodecanoyl-N-(4-fluorophenyl)pyrrolidine-3-carboxamide] | 20 to 50 |
| CCCCCCCCCCCC(=O)N1CCC(C(=O)Nc2cc(C)nn2C)C1 (stereo not drawn) [Example 153, N-(1,3-dimethylpyrazol-5-yl)-1-dodecanoylpyrrolidine-3-carboxamide] | > 50 |
| CCCCCCCCCCCC(=O)N1CCC(C(=O)Nc2cc(C(C)(C)C)nn2C)C1 (stereo not drawn) [Example 154, N-(3-tert-butyl-1-methylpyrazol-5-yl)-1-dodecanoylpyrrolidine-3-carboxamide] | 20 to 50 |
